Blank lines part the entries; values can stand above or below the compound they belong to.
Experiments:
Parameters in all cases: dose 0.5-1 mg/kg, route intravenous
[1] = system: Heart; assay: Biodistribution in Sprague-Dawley rat heart assessed per organ at 0.5 to 1 mg/kg, iv after 1 hr by gamma-well counting analysis; assay type: ADME, organism-based; settings: in vivo
[2] = system: Lung; assay: Biodistribution in Sprague-Dawley rat lung assessed per organ at 0.5 to 1 mg/kg, iv after 15 mins by gamma-well counting analysis; assay type: ADME, organism-based; settings: in vivo, 0.25 h
[3] = system: Thyroid gland; assay: Biodistribution in Sprague-Dawley rat thyroid at 0.5 to 1 mg/kg, iv after 1 hr by gamma-well counting analysis; assay type: ADME, organism-based; settings: in vivo
[4] = system: Muscle tissue; assay: Biodistribution in Sprague-Dawley rat muscle assessed per organ at 0.5 to 1 mg/kg, iv after 1 hr by gamma-well counting analysis; assay type: ADME, organism-based; settings: in vivo
[5] = Biodistribution in Sprague-Dawley rat fat and fur assessed per organ at 0.5 to 1 mg/kg, iv after 1 hr by gamma-well counting analysis; assay type: ADME, organism-based, Adipose tissue; settings: in vivo
[6] = system: Heart; assay: Biodistribution in Sprague-Dawley rat heart at 0.5 to 1 mg/kg, iv after 15 mins by gamma-well counting analysis; assay type: ADME, organism-based; settings: in vivo, 0.25 h
[7] = system: Stomach; assay: Biodistribution in Sprague-Dawley rat stomach assessed per organ at 0.5 to 1 mg/kg, iv after 1 hr by gamma-well counting analysis; assay type: ADME, organism-based; settings: in vivo
[8] = system: Kidney; assay: Biodistribution in Sprague-Dawley rat kidney at 0.5 to 1 mg/kg, iv after 15 mins by gamma-well counting analysis; assay type: ADME, organism-based; settings: in vivo, 0.25 h
[9] = system: Heart; assay: Biodistribution in Sprague-Dawley rat heart assessed per organ at 0.5 to 1 mg/kg, iv after 15 mins by gamma-well counting analysis; assay type: ADME, organism-based; settings: in vivo, 0.25 h
[10] = system: Heart; assay: Biodistribution in Sprague-Dawley rat heart at 0.5 to 1 mg/kg, iv after 1 hr by gamma-well counting analysis; assay type: ADME, organism-based; settings: in vivo
[11] = system: Large intestine; assay: Biodistribution in Sprague-Dawley rat large intestine assessed per organ at 0.5 to 1 mg/kg, iv after 15 mins by gamma-well counting analysis; assay type: ADME, organism-based; settings: in vivo, 0.25 h
[12] = system: Blood; assay: Biodistribution in Sprague-Dawley rat blood assessed per organ at 0.5 to 1 mg/kg, iv after 15 mins by gamma-well counting analysis; assay type: ADME, organism-based; settings: in vivo, 0.25 h
[13] = system: Kidney; assay: Biodistribution in Sprague-Dawley rat kidney assessed per organ at 0.5 to 1 mg/kg, iv after 1 hr by gamma-well counting analysis; assay type: ADME, organism-based; settings: in vivo
[14] = Biodistribution in Sprague-Dawley rat fat and fur assessed per organ at 0.5 to 1 mg/kg, iv after 15 mins by gamma-well counting analysis; assay type: ADME, organism-based, Adipose tissue; settings: in vivo, 0.25 h
[15] = system: Thyroid gland; assay: Biodistribution in Sprague-Dawley rat thyroid assessed per organ at 0.5 to 1 mg/kg, iv after 1 hr by gamma-well counting analysis; assay type: ADME, organism-based; settings: in vivo
[16] = system: Stomach; assay: Biodistribution in Sprague-Dawley rat stomach assessed per organ at 0.5 to 1 mg/kg, iv after 15 mins by gamma-well counting analysis; assay type: ADME, organism-based; settings: in vivo, 0.25 h
[17] = system: Bone; assay: Biodistribution in Sprague-Dawley rat bone assessed per organ at 0.5 to 1 mg/kg, iv after 1 hr by gamma-well counting analysis; assay type: ADME, organism-based, Bone element; settings: in vivo
[18] = system: Large intestine; assay: Biodistribution in Sprague-Dawley rat large intestine assessed per organ at 0.5 to 1 mg/kg, iv after 1 hr by gamma-well counting analysis; assay type: ADME, organism-based; settings: in vivo
[19] = system: Liver; assay: Biodistribution in Sprague-Dawley rat liver at 0.5 to 1 mg/kg, iv after 15 mins by gamma-well counting analysis; assay type: ADME, organism-based; settings: in vivo, 0.25 h
[20] = system: Lung; assay: Biodistribution in Sprague-Dawley rat lung assessed per organ at 0.5 to 1 mg/kg, iv after 1 hr by gamma-well counting analysis; assay type: ADME, organism-based; settings: in vivo
[21] = system: Spleen; assay: Biodistribution in Sprague-Dawley rat spleen at 0.5 to 1 mg/kg, iv after 1 hr by gamma-well counting analysis; assay type: ADME, organism-based; settings: in vivo
[22] = system: Muscle tissue; assay: Biodistribution in Sprague-Dawley rat muscle at 0.5 to 1 mg/kg, iv after 15 mins by gamma-well counting analysis; assay type: ADME, organism-based; settings: in vivo, 0.25 h
[23] = system: Bone; assay: Biodistribution in Sprague-Dawley rat bone assessed per organ at 0.5 to 1 mg/kg, iv after 15 mins by gamma-well counting analysis; assay type: ADME, organism-based, Bone element; settings: in vivo, 0.25 h
[24] = system: Spleen; assay: Biodistribution in Sprague-Dawley rat spleen assessed per organ at 0.5 to 1 mg/kg, iv after 1 hr by gamma-well counting analysis; assay type: ADME, organism-based; settings: in vivo
[25] = system: Muscle tissue; assay: Biodistribution in Sprague-Dawley rat muscle assessed per organ at 0.5 to 1 mg/kg, iv after 15 mins by gamma-well counting analysis; assay type: ADME, organism-based; settings: in vivo, 0.25 h
[26] = system: Bone; assay: Biodistribution in Sprague-Dawley rat bone at 0.5 to 1 mg/kg, iv after 1 hr by gamma-well counting analysis; assay type: ADME, organism-based, Bone element; settings: in vivo
[27] = system: Kidney; assay: Biodistribution in Sprague-Dawley rat kidney assessed per organ at 0.5 to 1 mg/kg, iv after 15 mins by gamma-well counting analysis; assay type: ADME, organism-based; settings: in vivo, 0.25 h
[28] = system: Spleen; assay: Biodistribution in Sprague-Dawley rat spleen assessed per organ at 0.5 to 1 mg/kg, iv after 15 mins by gamma-well counting analysis; assay type: ADME, organism-based; settings: in vivo, 0.25 h
[29] = system: Blood; assay: Biodistribution in Sprague-Dawley rat blood at 0.5 to 1 mg/kg, iv after 1 hr by gamma-well counting analysis; assay type: ADME, organism-based; settings: in vivo
[30] = system: Liver; assay: Biodistribution in Sprague-Dawley rat liver at 0.5 to 1 mg/kg, iv after 1 hr by gamma-well counting analysis; assay type: ADME, organism-based; settings: in vivo
[31] = system: Liver; assay: Biodistribution in Sprague-Dawley rat liver assessed per organ at 0.5 to 1 mg/kg, iv after 1 hr by gamma-well counting analysis; assay type: ADME, organism-based; settings: in vivo
[32] = system: Muscle tissue; assay: Biodistribution in Sprague-Dawley rat muscle at 0.5 to 1 mg/kg, iv after 1 hr by gamma-well counting analysis; assay type: ADME, organism-based; settings: in vivo
[33] = system: Lung; assay: Biodistribution in Sprague-Dawley rat lung at 0.5 to 1 mg/kg, iv after 15 mins by gamma-well counting analysis; assay type: ADME, organism-based; settings: in vivo, 0.25 h
[34] = system: Lung; assay: Biodistribution in Sprague-Dawley rat lung at 0.5 to 1 mg/kg, iv after 1 hr by gamma-well counting analysis; assay type: ADME, organism-based; settings: in vivo
[35] = system: Blood; assay: Biodistribution in Sprague-Dawley rat blood assessed per organ at 0.5 to 1 mg/kg, iv after 1 hr by gamma-well counting analysis; assay type: ADME, organism-based; settings: in vivo
[36] = system: Small intestine; assay: Biodistribution in Sprague-Dawley rat small intestine assessed per organ at 0.5 to 1 mg/kg, iv after 1 hr by gamma-well counting analysis; assay type: ADME, organism-based; settings: in vivo
[37] = system: Thyroid gland; assay: Biodistribution in Sprague-Dawley rat thyroid at 0.5 to 1 mg/kg, iv after 15 mins by gamma-well counting analysis; assay type: ADME, organism-based; settings: in vivo, 0.25 h
[38] = system: Liver; assay: Biodistribution in Sprague-Dawley rat liver assessed per organ at 0.5 to 1 mg/kg, iv after 15 mins by gamma-well counting analysis; assay type: ADME, organism-based; settings: in vivo, 0.25 h
[39] = system: Kidney; assay: Biodistribution in Sprague-Dawley rat kidney at 0.5 to 1 mg/kg, iv after 1 hr by gamma-well counting analysis; assay type: ADME, organism-based; settings: in vivo
[40] = system: Thyroid gland; assay: Biodistribution in Sprague-Dawley rat thyroid assessed per organ at 0.5 to 1 mg/kg, iv after 15 mins by gamma-well counting analysis; assay type: ADME, organism-based; settings: in vivo, 0.25 h
[41] = system: Bone; assay: Biodistribution in Sprague-Dawley rat bone at 0.5 to 1 mg/kg, iv after 15 mins by gamma-well counting analysis; assay type: ADME, organism-based, Bone element; settings: in vivo, 0.25 h
[42] = system: Small intestine; assay: Biodistribution in Sprague-Dawley rat small intestine assessed per organ at 0.5 to 1 mg/kg, iv after 15 mins by gamma-well counting analysis; assay type: ADME, organism-based; settings: in vivo, 0.25 h
[43] = system: Spleen; assay: Biodistribution in Sprague-Dawley rat spleen at 0.5 to 1 mg/kg, iv after 15 mins by gamma-well counting analysis; assay type: ADME, organism-based; settings: in vivo, 0.25 h
[44] = system: Blood; assay: Biodistribution in Sprague-Dawley rat blood at 0.5 to 1 mg/kg, iv after 15 mins by gamma-well counting analysis; assay type: ADME, organism-based; settings: in vivo, 0.25 h

Drug uptake [1]: 0.16 %ID
Drug uptake [2]: 3.9 %ID
Drug uptake [3]: 6.85 % ID/g
Drug uptake [4]: 10.71 %ID
Drug uptake [5]: 9.69 %ID
Drug uptake [6]: 0.35 % ID/g
Drug uptake [7]: 2.24 %ID
Drug uptake [8]: 0.98 % ID/g
Drug uptake [9]: 0.26 %ID
Drug uptake [10]: 0.19 % ID/g
Drug uptake [11]: 1.41 %ID
Drug uptake [12]: 1.87 %ID
Drug uptake [13]: 1.58 %ID
Drug uptake [14]: 8.82 %ID
Drug uptake [15]: 0.14 %ID
Drug uptake [16]: 1.99 %ID
Drug uptake [17]: 1.84 %ID
Drug uptake [18]: 0.91 %ID
Drug uptake [19]: 0.74 % ID/g
Drug uptake [20]: 2.78 %ID
Drug uptake [21]: 0.6 % ID/g
Drug uptake [22]: 0.2 % ID/g
Drug uptake [23]: 2.52 %ID
Drug uptake [24]: 0.4 %ID
Drug uptake [25]: 19.67 %ID
Drug uptake [26]: 0.12 % ID/g
Drug uptake [27]: 1.83 %ID
Drug uptake [28]: 0.52 %ID
Drug uptake [29]: 0.1 % ID/g
Drug uptake [30]: 0.66 % ID/g
Drug uptake [31]: 7.08 %ID
Drug uptake [32]: 0.1 % ID/g
Drug uptake [33]: 2.58 % ID/g
Drug uptake [34]: 2.01 % ID/g
Drug uptake [35]: 1.44 %ID
Drug uptake [36]: 16.23 %ID
Drug uptake [37]: 2.76 % ID/g
Drug uptake [38]: 7.3 %ID
Drug uptake [39]: 0.76 % ID/g
Drug uptake [40]: 0.06 %ID
Drug uptake [41]: 0.16 % ID/g
Drug uptake [42]: 12.98 %ID
Drug uptake [43]: 1.15 % ID/g
Drug uptake [44]: 0.12 % ID/g
Compound: CC(C)NCC(O)COc1ccc([125I])c2ccccc12 (racemic)

Drug uptake [1]: 0.35 %ID
Drug uptake [2]: 1.89 %ID
Drug uptake [3]: 3.58 % ID/g
Drug uptake [4]: 15.96 %ID
Drug uptake [5]: 7.19 %ID
Drug uptake [6]: 0.89 % ID/g
Drug uptake [7]: 0.7 %ID
Drug uptake [8]: 1.82 % ID/g
Drug uptake [9]: 0.64 %ID
Drug uptake [10]: 0.51 % ID/g
Drug uptake [11]: 0.56 %ID
Drug uptake [12]: 0.79 %ID
Drug uptake [13]: 2.3 %ID
Drug uptake [14]: 5.87 %ID
Drug uptake [15]: 0.07 %ID
Drug uptake [16]: 0.71 %ID
Drug uptake [17]: 2.44 %ID
Drug uptake [18]: 0.94 %ID
Drug uptake [19]: 1.76 % ID/g
Drug uptake [20]: 2.19 %ID
Drug uptake [21]: 1.14 % ID/g
Drug uptake [22]: 0.2 % ID/g
Drug uptake [23]: 2.93 %ID
Drug uptake [24]: 0.6 %ID
Drug uptake [25]: 18.27 %ID
Drug uptake [26]: 0.18 % ID/g
Drug uptake [27]: 3.45 %ID
Drug uptake [28]: 0.8 %ID
Drug uptake [29]: 0.06 % ID/g
Drug uptake [30]: 1.39 % ID/g
Drug uptake [31]: 15.97 %ID
Drug uptake [32]: 0.17 % ID/g
Drug uptake [33]: 1.24 % ID/g
Drug uptake [34]: 1.82 % ID/g
Drug uptake [35]: 0.86 %ID
Drug uptake [36]: 5.49 %ID
Drug uptake [37]: 4.73 % ID/g
Drug uptake [38]: 18.94 %ID
Drug uptake [39]: 1.27 % ID/g
Drug uptake [40]: 0.1 %ID
Drug uptake [41]: 0.21 % ID/g
Drug uptake [42]: 2.45 %ID
Drug uptake [43]: 1.33 % ID/g
Drug uptake [44]: 0.06 % ID/g
Compound: CC(C)NCC(O)COc1ccc(NC(=O)c2cccc([125I])c2)cc1 (racemic)

From ChEMBL document CHEMBL3272333, “Synthesis and biologic distribution of radioiodinated beta-adrenergic antagonists” (J Med Chem, 1978)
